Publication PMC6155332, “Antimalarials with Benzothiophene Moieties as Aminoquinoline Partners” (Molecules : A Journal of Synthetic Chemistry and Natural …, 2017)
Several values for one entry are separate records, joined by “and”; a condition that tells them apart may be missing. Identical values can stand only once. Like-named read-outs stand apart in the source and are kept apart here.

How the values were obtained:
P. berghei (ANKA) = experiment: Modified Thompson test, P. berghei mouse efficacy; format: in vivo, Plasmodium berghei; conditions: for Parasitemia D18: day 18; for Parasitemia D21: day 21; for Parasitemia D25: day 25; for Parasitemia D28: day 28; for Parasitemia D11: day 11; for Mean Survival Time (MST, Days) / Mice Alive on Day 31 / Mice Dead/Day Died: infected mice
Procedure: In a separate host toxicity study, benzothiophene 25 was subjected to in vivo toxicity evaluation. […]
The P. berghei (ANKA) mouse efficacy tests were conducted using a modified version of the Thompson test. Groups of five mice were inoculated intraperitoneally with erythrocytes infected with P. berghei on day 0. Drugs were suspended in 0.5% hydroxyethylcellulose-0.1% Tween 80 and administered orally once a day beginning on day 3 post infection. […] Cure was defined as survival (with no parasitemia) until day 31 post-treatment. Parasitemia was determined by thin-blood Giemsa-stained smears prepared from mice tail blood of each animal on days 0, 3, 6, 10, 13, 17, 20, 24, 27, and 31 (postinfection). The slides were examined under a light microscope.

healthy mice = experiment: Host toxicity study in healthy mice; format: in vivo; conditions: 160 mg/kg/day × 3 days; for Mice survived in host toxicity study: groups of 5 healthy mice; for Host toxicity (toxic / non-toxic): healthy mice, orally
Procedure: In a separate host toxicity study, groups of five healthy mice were administered 160 mg/kg/day × 3 days of the investigational compounds and individually monitored for behavior and appearance two times a day for 31 days. No toxicity was defined as survival past day 31 with no overt clinical manifestations of toxicity (changes in behavior and appearance).

β-hematin formation = experiment: Inhibition of β-hematin formation (BHIA assay); format: biochemical; conditions: molar equivalent of compound, relative to hemin, that inhibits β-hematin formation by 50%
Text: [33] The inhibition of β-hematin formation is expressed as the molar equivalent of compound, relative to hemin, that inhibits β-hematin formation by 50% and determined by slightly modified BHIA assay introduced by ParapiniS.BasilicoN.PasiniE.EganT.J.OlliaroP.TaramelliD.MontiD.Standardization of the physicochemical parameters to assess in vitro the beta-hematin inhibitory activity of antimalarial drugsExp. Parasitol.200096249256

P. berghei DNA = experiment: qPCR of blood and liver of treated mice for Plasmodium 18S rRNA gene; format: in vivo, Plasmodium berghei; conditions: mice treated 160 mg/kg/day × 3 days, alive past day 31
Text: Briefly, genomic DNA was extracted from the blood and liver of experimental animals using the DNeasy blood and tissue kit (Qiagen, Hilden, Germany) according to the manufacturer’s instructions. The primers and corresponding TaqMan (Applied BioSystems. Foster City, CA, USA) probe amplify and detect a highly conserved region of the 18S rRNA gene of the genus Plasmodium. Pure P. berghei gDNA samples were used as positive controls.
Genomic DNA was extracted from the blood and liver of experimental animals using the DNeasy blood and tissue kit (Qiagen, Hilden, Germany) according to the manufacturer’s instructions. Briefly, mice alive past day 31 with complete parasite clearance were sacrificed. Next, between 300 and 500 μL of blood was removed after heart puncture and the organs were removed, rinsed with dPBS and homogenized. The liver was homogenized using mechanical disruption and then subjected to proteinase K digestion. Approximately 100 μL of sample was used per each spin column for gDNA extraction.
Briefly, the primers and corresponding TaqMan probe amplify and detect a highly conserved region of the 18S rRNA gene of the genus Plasmodium. The primer and probe sequences were as follows: forward primer Plasmo 1: 5-[…] TCAGA-3; reverse primer Plasmo 2: 5-[…] TCATAA-3; TaqMan probe Plasprobe: 5-FAM-[…] GACTAG-TAMRA-3. […]

[1] = tested on: P. falciparum D6 (CQ susceptible (CQS) strain); set-up: method as in PMID 26640981, PMID 25801154; conditions: previously reported compounds; ref [27],[28]; cited from earlier work
[2] = tested on: P. falciparum W2 (CQ resistant (CQR) strain); set-up: method as in PMID 26640981; conditions: previously reported compounds; ref [27]; cited from earlier work
[3] = tested on: HepG2 (hepatocellular carcinoma) cell line; set-up: method as in PMID 26640981; conditions: previously reported compounds; ref [27]; cited from earlier work
[4] = tested on: P. falciparum D6 (CQ susceptible (CQS) strain); experiment: Malaria SYBR Green Fluorescence Assay, D6 strain; format: cell-based; conditions: Plasmodium falciparum; CQ susceptible African D6 clone; read-out: In Vitro Antimalarial Activity (P. falciparum, IC50, nM) D6
[5] = tested on: P. falciparum W2 (CQ resistant (CQR) strain); experiment: microbe, parasite or virus in culture; format: cell-based, Plasmodium falciparum
[6] = tested on: P. falciparum TM91C235 (Thailand, multidrug-resistant (MDR) strain); experiment: Malaria SYBR Green Fluorescence Assay, TM91C235 strain; format: cell-based; conditions: Plasmodium falciparum, read-out: In Vitro Antimalarial Activity (P. falciparum, IC50, nM) C235
[7] = tested on: HepG2 (hepatocellular carcinoma) cell line; experiment: Compound toxicity in HepG2 cell line; format: cell-based, human
Procedure: To investigate possible toxicity issues, the synthesized compounds were evaluated in vitro against a human hepatoma cell line (HepG2).
Synthesized aminoquinolines were screened in vitro against P. falciparum strains: CQ and MFQ susceptible strain D6 (clone of Sierra Leone/UNC isolate), CQ resistant but MFQ susceptible strain W2 (clone of Indochina isolate), and CQ and MFQ resistant strain TM91C235 (clone of South East Asian isolate) using the Malaria SYBR Green Fluorescence Assay. Full method details are given in Supplementary Materials I. Assessment of compound toxicity in a HepG2 (hepatocellular carcinoma) cell line followed the protocol described in Ref. [40].

[8] = 20 mg/kg/day p.o., days 3–6 postinfection
[9] = 40 mg/kg/day p.o., days 3–6 postinfection
[10] = 40 mg/kg/day p.o., days 3–6 postinfection, 40 mg/kg/day
[11] = 80 mg/kg/day p.o., days 3–6 postinfection
[12] = 80 mg/kg/day p.o., days 3–6 postinfection, 80 mg/kg/day
[13] = 160 mg/kg/day p.o., days 3–5 postinfection

## Clc1ccc2c(NCCCCNCc3csc4ccccc34)ccnc2c1 [Compound 1]
P. berghei (ANKA); 20 mg/kg/day p.o. days 3–6
  Parasitemia D18: 6%
  Parasitemia D21: 27%
  Parasitemia D25: 63%
  Parasitemia D28: 66%
P. berghei (ANKA); 20 mg/kg/day
  Cure (4 days therapy): no cure
P. berghei (ANKA); 40 mg/kg/day p.o. days 3–6, day 7, positive mice
  Parasitemia D7: 5 mice negative
P. berghei (ANKA); 40 mg/kg/day p.o. days 3–6
  Parasitemia D11: no detectable parasitemia and 5 mice negative
  Parasitemia D18: 2.2%
  Parasitemia D21: 7.3%
  Parasitemia D25: 37%
  Parasitemia D28: 53%
P. berghei (ANKA); 80 mg/kg/day p.o. days 3–6, day 7, positive mice
  Parasitemia D7: 4 mice negative
P. berghei (ANKA); 80 mg/kg/day p.o. days 3–6
  Parasitemia D11: 4 mice negative
  Parasitemia D18: 2.3%
P. berghei (ANKA); 160 mg/kg/day p.o. days 3–5, day 7
  Parasitemia D7: cleared all parasites
P. berghei (ANKA); 160 mg/kg/day p.o. days 3–5, day 31 (end of study)
  Parasitemia D31: parasite negative
P. berghei (ANKA); 160 mg/kg/day p.o. days 3–5, days 7–31
  Parasitemia D7–D31: 5 mice negative
P. berghei (ANKA); 80, 40 and 20 mg/kg/day p.o. for 4 days, starting day 3 postinfection
  Parasite clearance in dose response test: did not clear the parasites
P. berghei (ANKA); 80 and 40 mg/kg/day, clearance with recrudescence on D11-14
  Cure (4 days therapy): no cure
P. berghei (ANKA); P. berghei infected mice, 160 mg/kg/day × 3 days p.o.
  Mice cured (modified Thompson test, 3 days therapy): 5/5
P. berghei (ANKA); [8]
  Mean Survival Time (MST, Days): 16.8 days
  Mice Alive on Day 31: 0/5
P. berghei (ANKA); 20 mg/kg/day p.o., days 3–6 postinfection, 20 mg/kg/day
  Mice Dead/Day Died: 2/11 and 1/14 and 1/18 and 1/30
P. berghei (ANKA); [9]
  Mean Survival Time (MST, Days): 19.4 days
  Mice Alive on Day 31: 0/5
P. berghei (ANKA); [10]
  Mice Dead/Day Died: 1/30 and 1/15 and 1/16 and 2/18
P. berghei (ANKA); [11]
  Mean Survival Time (MST, Days): 18.2 days
  Mice Alive on Day 31: 0/4
P. berghei (ANKA); [12]
  Mice Dead/Day Died: 3/18 and 1/19
P. berghei (ANKA); [13]
  Mean Survival Time (MST, Days): >31 days
  Mice Alive on Day 31: 5/5
Healthy mice
  Mice survived in host toxicity study: 5/5
β-hematin formation
  IC50 of inhibition of β-hematin formation: 0.34 molar equivalent
P. berghei DNA
  P. berghei DNA in blood and tissue samples (qPCR): negative
[1]
  IC50: 8 nM
[2]
  IC50: 31 nM
[3]
  SI(HepG2/D6): 282

## Fc1ccc2scc(CNCCCCNc3ccnc4cc(Cl)ccc34)c2c1 [Compound 2]
[1]
  IC50: 10 nM

## N#Cc1ccc2scc(CNCCCNc3ccnc4cc(Cl)ccc34)c2c1 [Compound 3]
[1]
  IC50: 5 nM

## N#Cc1ccc(-c2ccc(CNCCCNc3ccnc4cc(Cl)ccc34)s2)cc1 [Compound 4]
[1]
  IC50: 2 nM

## COc1ccc(-c2ccc(CNCCCNc3ccnc4cc(Cl)ccc34)s2)cc1 [Compound 5]
[1]
  IC50: 7 nM

## Cc1ccc(-c2ccc(CNCCNc3ccnc4cc(Cl)ccc34)s2)cc1 [Compound 6]
[1]
  IC50: 5 nM

## CN(CCCCCCCCNc1ccnc2ccccc12)Cc1ccc(-c2ccc(-c3ccc(C#N)cc3)s2)cc1 [Compound 46]
[4]
  IC50: 7 nM
[5]; IC50 W2 / IC50 D6
  RI W2/D6 (resistance index): 0.7
[5]; Plasmodium falciparum, W2, read-out: In Vitro Antimalarial Activity (P. falciparum, IC50, nM) W2
  IC50: 5 nM
[6]
  IC50: 13 nM
[7]; Homo sapiens, HepG2, hepatocellular carcinoma cells
  IC50: 2570 nM
[7]; IC50 HepG2 / IC50 D6
  SI HepG2/D6 (selectivity index): 367
P. berghei (ANKA); 40 mg/kg/day p.o. days 3–6
  Parasitemia D25: 43%
P. berghei (ANKA); 80 mg/kg/day p.o. days 3–6, day 14
  Parasitemia D14: 4.7%
P. berghei (ANKA); 80 mg/kg/day p.o. days 3–6
  Parasitemia D18: 12%
  Parasitemia D21: 35%
  Parasitemia D25: 41%
P. berghei (ANKA); 80 and 40 mg/kg/day × 4 days (both doses)
  One mouse survival until day: 25 days
P. berghei (ANKA); [9]
  Mean Survival Time (MST, Days): 15.8 days
  Mice Alive on Day 31: 0/5
P. berghei (ANKA); [10]
  Mice Dead/Day Died: 1/10 and 2/11 and 1/22 and 1/25
P. berghei (ANKA); [11]
  Mean Survival Time (MST, Days): 14.4 days
  Mice Alive on Day 31: 0/5
P. berghei (ANKA); [12]
  Mice Dead/Day Died: 1/7 and 1/12 and 1/13 and 1/14 and 1/26
Healthy mice
  Mice survived in host toxicity study: 5
  Host toxicity (toxic / non-toxic): non-toxic

## Clc1ccc2c(NCCCNCc3csc4ccccc34)ccnc2c1 [Compound 53]
Healthy mice
  Host toxicity (toxic / non-toxic): toxic
[1]
  IC50: 7 nM
[2]
  IC50: 24 nM
[3]
  SI(HepG2/D6): 1111
